Measured values taken from US20260235618A1, “MICROBEADS WITH RATIOMETRIC LANTHANIDE ENCODING FOR DRUG SCREENING” (CZ Biohub SF, LLC, priority 2022, published 2026).
“Also recorded” adds a separate entry of the source.

Biological target: Cdc20 (Homo sapiens, UniProt Q12834)
Test: Multiplexed binding assay of Cdc20 to peptides on spectrally encoded beads, with and without small molecule (per-bead fluorescence of labeled antibody)
Conditions: bead-bound D-Box peptides; per-bead fluorescence intensity of fluorescently-labeled antibody recognizing bound Cdc20; vs control without Apcin (FIG. 2)
Excerpt: FIG. 2 provides data illustrating the effect of the small molecule Apcin on the binding between Cdc20 and different peptide sequences. Binding was quantified by measuring the per-bead fluorescence intensity of a fluorescently-labeled antibody that recognizes bound Cdc20. […] The control is the left bar for each of the peptides.
In one illustrative assay, a library of peptide-bound microbeads is generated by synthesizing binding site peptides directly on microbeads. Beads are pooled and then incubated with the protein of interest in the presence or absence of a modulator or candidate biding agent. The beads are then typically washed and the amount of signal from a label directly or indirectly attached to the protein of interest that is bound to each bead is determined. […]
For illustration, binding site peptides can be from proteins that are binding partners of any protein of interest, e.g., a signaling protein. […] In some embodiments, such a bead, or pool of such beads, is deposited in a compartment, e.g., a microwell plate such as a 96-well plate, with a signaling protein and a candidate agent to be evaluated, such as a small molecule. […] Use of multiple peptide sequences (e.g., for different binding sites or different affinities) can serve as an internal control and provide the ability to quantitatively assess a loss of signal without concerns regarding assay quality (e.g., FIG. 2). […]

Cdc20, sequence (Q12834 whole entry, species assumed): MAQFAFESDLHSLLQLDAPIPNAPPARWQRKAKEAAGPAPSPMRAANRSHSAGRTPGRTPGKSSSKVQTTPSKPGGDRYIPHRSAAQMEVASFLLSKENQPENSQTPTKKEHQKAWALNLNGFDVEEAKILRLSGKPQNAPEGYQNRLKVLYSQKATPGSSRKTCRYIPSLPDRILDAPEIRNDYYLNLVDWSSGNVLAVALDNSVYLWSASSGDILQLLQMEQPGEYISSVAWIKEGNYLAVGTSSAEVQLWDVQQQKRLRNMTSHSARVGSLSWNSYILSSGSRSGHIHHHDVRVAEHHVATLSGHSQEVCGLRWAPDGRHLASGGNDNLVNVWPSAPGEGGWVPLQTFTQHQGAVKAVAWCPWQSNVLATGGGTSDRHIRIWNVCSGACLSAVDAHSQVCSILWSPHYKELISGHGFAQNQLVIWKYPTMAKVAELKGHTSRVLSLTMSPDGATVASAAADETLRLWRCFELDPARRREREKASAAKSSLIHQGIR

## Cc1ncc([N+](=O)[O-])n1CCOC(=O)NC(Nc1ncccn1)C(Cl)(Cl)Cl (stereo not shown) [Apcin]
  Effect on binding between Cdc20 and D-Box-containing peptide sequences: blocks the binding site between Cdc20 and D-Box-containing sequences; also recorded: selectively prevented the binding of Cdc20 to D-Box-containing peptides
